From patent publication US4816490A, “Novel therapeutic use of a derivative of indane dione and the pharmaceutical compositions intended for this use” (priority 1987, dated 1989)

Tests used:
[1] = tested on: male and female mice of Swiss strain; test: Acute toxicity after single intraperitoneal administration; format: in vivo; conditions: IP
Source text: (§1) Male and female mice of Swiss strain weighing from 22 to 25 g of body weight were free of pathogen specific organisms (EOPS), stemming from breeding CERJ (53860 LE GENEST (France) and acclimated for at least 8 days in the animalry of the firm.
(§2) Except where stipulated to the contrary, in the tables giving the results, 10 animals of the same sex for each dose were housed in cages of MAKROLON (Safi) of 40 cm by 25 cm filled with shaving of wood. Standard feeding for rats and mice, tablets UAR and tap water ad libitum.
(§3) The compounds were administered without previous fasting either orally (gastric tubing using a metallic oesophageous sonde) at a rate of 0.5 ml or 1 ml per 20 g of body weight of an aqueous suspension of the test compound in a 3% solution of arabic gum, or intraperitoneally at a rate of 0.5 ml or 1 ml per 20 g of body weight of the test compound suspended in an isotonic saline solution containing 3% of arabic gum.
(§4) For 6 days after the single administration and then every day for 15 days.
(§5) When necessary, the mean lethal doses (LD 50) were calculated by the method of Behrens and Karber (BK) and Miller and Tainter (MT). The latter allowing to supply with, for the threshold of probability P=0.05 a limit of confidence for the LD 50. Further calculated were the LDo i.e. DMT=maximal doses always tolerated and the LD100 i.e. DMM=minimal doses always lethal.

[2] = tested on: male and female mice of Swiss strain; test: Acute toxicity after single oral administration; format: in vivo; conditions: for Deaths / toxic symptoms: single dose 10 g/kg
Source text: as §1, §2, §3, §4, §5
The compound was administered in a single dose to batches of 10 male or female mice weighing […] at a rate of 1 ml per 20 g of body weight.

[3] = tested on: atheromatous deposits of the aorta, Wistar rats; test: Macroscopic examination of aorta atheroma in rats on atheromatogenous diet; format: in vivo, rat
Source text: (§6) The method utilized for the test was that, slightly altered of Aubert D. Feraud J. C., Lacaze B., Pepino., Ponak E. et Podesta M. as described in Atherosclerosis, Vol. 20 (1974), p. 263-280 (Experimental Atherogenesis in the Wistar Rat).
(§7) Diet: standard tablets UAE AO 3 enriched in cholesterol (0.5%) and in cholic acid (0.5).
After the studies, all the animals were sacrificed by subtotal puncture of the blood in the abdominal aorta after anesthesia by intravenous sodium Pentobarbital. The hearts, livers, aortas on which the score of atheroma was determined were taken. For this purpose, the aortas were longitudinally cut, then spread to allow a whole insight of the endothelial coating from the aortic valves until the branching of the coeliac stem (lower portion of the thoracic aorta).
Aorta was from an anatomic point of view divided into two parts:
Zone 1: aortic valves-first intercostal arters
Zone 2: first intercostal arters and branching of the coeliac stem
The intensity of the atheromatous deposits was determined according to the following scores:
Score 1: Discrete (<1 mm) and few deposit
Score 2: Numerous and discrete deposits
Score 3: Numerous and marked deposits (<1 mm)
Score 4: Very marked deposits or very numerous deposits but letting some uninfiltrated areas
Score 5: Deposits on the whole epithelium
Two parameters were considered:
the intensity of the observed damages determined according to the previously-given scores.

[4] = Anti-inflammatory / analgesic activity; format: in vivo; conditions: doses lower than previously disclosed
Procedure: The said 2-[(3,4-dimethoxy-benzoyl)-methyl]-2-hydroxy-1,3-dioxo-Indane has been used in the French patent at a dose of 250 mg/kg to induce an anti-inflammatory threshold effect. Consequently, the dosology disclosed in the French patent for the use in human therapy shall range from 400 to 1200 mg daily.

[5] = tested on: atheroma / hyperlipidaemia in Wistar rats on atheromatogenous regimen; test: Overall hypolipaemiant and anti-atheromatous classification (summarized scores); format: in vivo, rat; conditions: 100 mg/kg
Source text: as §6
Female rats of Wistar strain, free of specific pathogenic germs (EOPS) stemming from the breeding EVIC-CEBA
as §7
Diet of the animals: the animals were given the atheromatogenous regimen then while maintaining the same regimen, they were given for 4 days 250,000 IU/kg of vitamin D2 dissolved in olive oil (Sterogyl 15H). The compounds to be tested were given thereafter for 4 weeks immediately after the termination of the atheromatogenous regimen.

[6] = Anti-lipaemiant activity (general statement); format: in vivo; conditions: read-out: Dose from which a clear anti-lipaemiant activity is shown
[7] = French patent 2,382,424; cited from earlier work

## COc1ccc(C(=O)CC2(O)C(=O)c3ccccc3C2=O)cc1OC [Compound of the invention, 2-[(3,4-dimethoxy-benzoyl)-methyl]-2-hydroxy-1,3-dioxo Indane]
[1]
  Symptoms after injection: crawling after the injection then a protracted prostation took place with piloerection and bradypnea cyanosis
[1]; 2000 mg/kg, females
  Mortality in 10 mice: 0
[1]; 2000 mg/kg, males
  Mortality in 10 mice: 0
[1]; 2500 mg/kg, females
  Mortality in 10 mice: 1
[1]; 2500 mg/kg, males
  Mortality in 10 mice: 1
[1]; 3000 mg/kg, females
  Mortality in 10 mice: 6
[1]; 3000 mg/kg, males
  Mortality in 10 mice: 3
[1]; 3 to 4 g/kg, after 5 to 7 days
  Late mortalities: generally 1 death per dose for each sex
[1]; 3500 mg/kg, females
  Mortality in 10 mice: 8
[1]; 3500 mg/kg, males
  Mortality in 10 mice: 5
[1]; 4000 mg/kg, females
  Mortality in 10 mice: 10
[1]; 4000 mg/kg, males
  Mortality in 10 mice: 8
[1]; 4500 mg/kg, females
  Mortality in 10 mice: 10
[1]; 4500 mg/kg, males
  Mortality in 10 mice: 10
[1]; 5000 mg/kg, females
  Mortality in 10 mice: 10
[1]; 5000 mg/kg, males
  Mortality in 10 mice: 10
[1]; female mice
  LD100 (minimal dose always lethal): 4000 mg/kg
  LDo (maximal dose always tolerated): 2000 mg/kg
[1]; male mice
  LD100 (minimal dose always lethal): 4500 mg/kg
  LDo (maximal dose always tolerated): 2000 mg/kg
[1]; single administration
  Toxicity in comparison with Clofibrate: markedly less toxic than Clofibrate
[2]; general statement
  Toxicity: very low toxicity
[2]; oral, male or female mice
  LD100: > 10000 mg/kg
  LDo: 10000 mg/kg
  Deaths / toxic symptoms: no toxicity even at a dose of 10 g/kg
[2]; oral, male or female mice, listed as test compound
  Deaths / toxic symptoms: no deaths nor toxic symptoms appeared
[2]; single administration, orally or parenterally
  Toxicity in comparison with Clofibrate: less toxic than Clofibrate
[3]; 100 mg/kg
  Macroscopical examination total score: 2.57
[3]; 100 mg/kg, macroscopical
  Damaged animals, % of decrease in comparison with Controls-Diet: -30.77%
  Damaged animals, percentage: 69.23%
  Damaged animals, score in relation to Clofibrate: 1.69
  Intensity of the damages, % of decrease in comparison with Controls-Diet: -22.68%
  Intensity of the damages, score in relation to Clofibrate: 0.88
[3]; cholesterol-rich diet
  Frequency of macroscopic damages: a lower frequency of macroscopic damages
  Intensity of observed damages: a lower intensity of the observed damages
[3]; same doses, cholesterol-rich diet
  Activity on macroscopic damages vs Clofibrate: more active when evaluating the macroscopic damages
[4]
  Anti-inflammatory or analgesic properties at the antilipaemiant doses: does not show anti-inflammatory or analgesic properties
[5]
  Classification of the anti-atheromatous action: Compound of the invention>Fenofibrate>Clofibrate
  Hypolipaemiant and anti-atheromatous activity: marked hypolipaemiant and anti-atheromatous activity, very close to Clofibrate (100 mg/kg) and far better than those of Fenclofibrate (100 mg/kg)
[6]
  minimal effective dose: ≥ 100 mg/kg
[7]
  Dose inducing an anti-inflammatory threshold effect: 250 mg/kg
